This data set in a line: solubility in aprotic NMR solvents. The format is physicochemical.

Regarding `CC1OC(OC2C(O)C(C)OC(OC3C(COS(=O)(=O)O)OC(n4cnc5c(=O)[nH]c(N)nc54)C3O)C2O)C(O)C(O)C1O` (stereo not shown) [Compound 2], the solubility result was “quite insoluble”.
